Data as given in US20080096861A1, “Chemical Compounds” (SMITHKLINE BEECHAM CORPORATION, priority 2004, published 2008).

Test system: HIV-1 IIIB
Test: HOS HIV-1 infectivity assay
Assay type: cell-based
Details: Human immunodeficiency virus 1, IIIB; as determined by the infectivity assay; strain not stated in Table 2; read-out: Activity Level
Experimental: Compounds were profiled against two HIV-1 viruses, the M-tropic (CCR5 utilizing) Ba-L strain and the T-tropic (CXCR4 utilizing) IIIB strain. Both viruses were propagated in human peripheral blood lymphocytes. Compounds were tested for there ability to block infection of the HOS cell line (expressing hCXCR4/hCCR5/hCD4/pHIV-LTR-luciferase) by either HIV-1 Ba-L or HIV-1 IIIB. Compound cytotoxicity was also examined in the absence of virus addition.
HOS cells (expressing hCXCR4/hCCR5/hCD4/pHIV-LTR-luciferase) were harvested and diluted in Dulbeccos modified Eagles media supplemented with 2% FCS and non-essential amino acid to a concentration of 60,000 cells/ml. The cells were plated into 96-well plates (100 ul per well) and the plates were placed in a tissue culture incubator (37° C.; 5% CO2/95% air) for a period of 24 h.
Subsequently, 50 ul of the desired drug solution (4 times the final concentration) was added to each well and the plates were returned to the tissue culture incubator (37° C.; 5% CO2/95% air) for 1 h. Following this incubation 50 ul of diluted virus was added to each well (approximately 2 million RLU per well of virus). The plates were returned to the tissue culture incubator (37° C.; 5% CO2/95% air) and were incubated for a further 96 h.
Following this incubation the endpoint for the virally infected cultures was quantified following addition of Steady-Glo Luciferase assay system reagent (Promega, Madison, Wis.). Cell viability or non-infected cultures was measured using a CellTiter-Glo luminescent cell viability assay system (Promega, Madison, Wis.). All luminescent readouts are performed on a Topcount luminescence detector (Packard, Meridien, Conn.).

Row | Compound | IC50 [nM]
1 | CN(Cc1nc2ccccc2n1CCCN1CCOCC1)C1CCCc2cccnc21 (centres unmarked) [Example 57, N-Methyl-N-([1-[3-(4-morpholinyl)propyl]-1H-benzimidazol-2-yl]methyl)-5,6,7,8-tetrahydro-8-quinolinamine] | 100 to 500
2 | CN(C)CCCn1ccnc1CN(C)C1CCCc2cccnc21 (centres unmarked) [Example 38, N-({1-[3-(Dimethylamino)propyl]-1H-imidazol-2-yl}methyl)-N-methyl-5,6,7,8-tetrahydro-8-quinolinamine] | 500 to 10000
3 | CN1CCCCC1CCCn1c(CN(C)C2CCCc3cccnc32)nc2ccccc21 (centres unmarked) [Example 59, N-Methyl-N-({1-[3-(1-methyl-2-piperidinyl)propyl]-1H-benzimidazol-2-yl}methyl)-5,6,7,8-tetrahydro-8-quinolinamine] | 100 to 500
4 | CN(Cc1nc2ccccc2n1C[C@H]1CCCN(Cc2ccccn2)C1)[C@H]1CCCc2cccnc21 [Example 40, (8S)—N-Methyl-N-[(1-{[(3S)-1-(2-pyridinylmethyl)-3-piperidinyl]methyl}-1H-benzimidazol-2-yl)methyl]-5,6,7,8-tetrahydro-8-quinolinamine] | < 100
5 | CN(Cc1nc2ccccc2n1CC(C)(C)CNC(=N)N)C1CCCc2cccnc21 (centres unmarked) [Example 68, N-[2,2-Dimethyl-3-(2-{[methyl(5,6,7,8-tetrahydro-8-quinolinyl)amino]methyl}-1H-benzimidazol-1-yl)propyl]guanidine] | < 100
6 | CN(C)CCCCCCn1c(CN(C)C2CCCc3cccnc32)nc2ccccc21 (centres unmarked) [Example 49, N-({1-[6-(Dimethylamino)hexyl]-1H-benzimidazol-2-yl}methyl)-N-methyl-5,6,7,8-tetrahydro-8-quinolinamine] | 100 to 500
7 | NCCCCn1c(CN(CCc2ccccc2)C2CCCc3cccnc32)nc2ccccc21 (centres unmarked) [Example 53, N-{[1-(4-Aminobutyl)-1H-benzimidazol-2-yl}methyl]-N-(2-phenylethyl)-5,6,7,8-tetrahydro-8-quinolinamine] | 500 to 10000

Results, then the compound that gave them:

Row | IC50 [nM] | Compound
8 | < 100 | CN(Cc1nc2ccccc2n1CCCN)[C@H]1CCCc2cccnc21 [Example 110, (8S)—N-{[1-(3-Aminopropyl)-1H-benzimidazol-2-yl]methyl}-N-methyl-5,6,7,8-tetrahydro-8-quinolinamine]
9 | 100 to 500 | CN(Cc1nc2ccccc2n1CCc1cncn1C)C1CCCc2cccnc21 (centres unmarked) [Example 71, N-Methyl-N-({1-[2-(1-methyl-1H-imidazol-5-yl)ethyl]-1H-benzimidazol-2-yl}methyl)-5,6,7,8-tetrahydro-8-quinolinamine]
10 | < 100 | CCCN(Cc1nc2ccccc2n1C[C@H]1CCCN(C)C1)[C@H]1CCCc2cccnc21 [Example 93, (8S)—N-[(1-{[(3S)-1-Methyl-3-piperidinyl]methyl}-1H-benzimidazol-2-yl)methyl]-N-propyl-5,6,7,8-tetrahydro-8-quinolinamine]
11 | 100 to 500 | CC(C)CN(Cc1nc2ccccc2n1C[C@H]1CCCN(C)C1)[C@H]1CCCc2cccnc21 [Example 94, (8S)—N-[(1-{[(3S)-1-Methyl-3-piperidinyl]methyl}-1H-benzimidazol-2-yl)methyl]-N-(2-methylpropyl)-5,6,7,8-tetrahydro-8-quinolinamine]
12 | 100 to 500 | CN1CCC[C@@H](Cn2c(CN(C)[C@@H]3CCCc4cccnc43)nc3ccccc32)C1 [Example 77, (8R)—N-Methyl-N-[(1-{[(3R)-1-methyl-3-piperidinyl]methyl}-1H-benzimidazol-2-yl)methyl]-5,6,7,8-tetrahydro-8-quinolinamine]
13 | < 100 | CC(C)N1CCC[C@@H](Cn2c(CN(C)[C@@H]3CCCc4cccnc43)nc3ccccc32)C1 [Example 79, (8R)—N-Methyl-N-[(1-{[(3R)-1-(1-methylethyl)-3-piperidinyl]methyl}-1H-benzimidazol-2-yl)methyl]-5,6,7,8-tetrahydro-8-quinolinamine]
14 | < 100 | CN1CCC[C@H](Cn2c(CN(CCCO)[C@H]3CCCc4cccnc43)nc3ccccc32)C1 [Example 96, 3-{[(1-{[(3S)-1-Methyl-3-piperidinyl]methyl}-1H-benzimidazol-2-yl)methyl][(8S)-5,6,7,8-tetrahydro-8-quinolinyl]amino}-1-propanol]
